Patent publication US20240228482A1, “COMPOUNDS, COMPOSITIONS AND METHODS OF TREATING CANCER” (HOTSPOT THERAPEUTICS, INC., priority 2021, published 2024)

Molecular target: T1, CBL-B (Homo sapiens, UniProt Q13191)
T1 construct: GST
Test: CBL-B TR-FRET IC50 screening (E1/E2 ubiquitination, Biotin-Ubiquitin, Anti GST-Tb donor / Streptavidin-d2 acceptor)
Type: biochemical
Conditions: CBL-B 10 nM final; 11-point titration from 100 uM; binned A-F; read-out: CBL-B TR-FRET activity IC50

T1 sequence (Q13191 whole entry): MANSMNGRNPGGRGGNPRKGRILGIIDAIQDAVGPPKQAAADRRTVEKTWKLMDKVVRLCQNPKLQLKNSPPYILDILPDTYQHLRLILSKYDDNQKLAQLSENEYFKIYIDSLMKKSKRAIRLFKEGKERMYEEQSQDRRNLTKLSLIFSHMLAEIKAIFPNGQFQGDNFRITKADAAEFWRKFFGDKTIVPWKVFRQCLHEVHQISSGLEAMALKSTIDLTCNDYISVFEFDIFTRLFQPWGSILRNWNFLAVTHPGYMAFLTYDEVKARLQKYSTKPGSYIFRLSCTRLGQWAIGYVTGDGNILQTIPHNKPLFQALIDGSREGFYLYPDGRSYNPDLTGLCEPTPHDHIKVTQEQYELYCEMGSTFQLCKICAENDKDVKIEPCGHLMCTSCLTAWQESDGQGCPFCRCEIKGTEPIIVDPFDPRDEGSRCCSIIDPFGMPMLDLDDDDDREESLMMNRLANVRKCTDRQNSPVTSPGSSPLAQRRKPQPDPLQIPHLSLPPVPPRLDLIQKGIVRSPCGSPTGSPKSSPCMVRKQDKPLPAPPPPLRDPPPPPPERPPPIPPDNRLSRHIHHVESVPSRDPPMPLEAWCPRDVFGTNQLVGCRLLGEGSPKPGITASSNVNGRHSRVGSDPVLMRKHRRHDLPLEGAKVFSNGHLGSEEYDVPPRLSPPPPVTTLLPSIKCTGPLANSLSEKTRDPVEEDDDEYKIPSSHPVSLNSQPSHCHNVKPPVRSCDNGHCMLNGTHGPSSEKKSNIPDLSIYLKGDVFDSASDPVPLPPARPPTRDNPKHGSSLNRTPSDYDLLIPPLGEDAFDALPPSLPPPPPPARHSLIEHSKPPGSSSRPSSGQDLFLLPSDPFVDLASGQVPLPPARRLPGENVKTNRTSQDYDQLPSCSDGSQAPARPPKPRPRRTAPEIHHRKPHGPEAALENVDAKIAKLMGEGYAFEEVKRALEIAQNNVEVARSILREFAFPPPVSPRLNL

SMILES	IC50 [nM]
Cn1cnnc1C(F)(F)[C@](C)(F)c1cccc(-n2cc3c(C(F)(F)F)cc(CN4CC[C@H](F)C4)cn3c2=O)c1 [Compound 26]	100 to 300
Cc1c2c(C(F)(F)F)cccn2c(=O)n1-c1cccc(C(C)Cc2nncn2C)c1 (centres unmarked) [Compound 27]	> 10000
Cn1cnnc1C(F)(F)[C@@](C)(F)c1cccc(-n2cc3c(C(F)(F)F)cc(CN4CC[C@H](F)C4)cn3c2=O)c1 [Compound 28]	100 to 300
C[C@H]1CCCN(Cc2cc(C(F)(F)F)c3cn(-c4cccc(C5(Cc6nncn6C)COC5)c4)c(=O)n3c2)C1 [Compound 29]	< 100
CNC(=O)c1cc(C(F)(F)F)c2cn(-c3cccc(C4(Cc5nncn5C)COC4)c3)c(=O)n2c1 [Compound 30]	1000 to 3000
CN(C)C(=O)c1cc(C(F)(F)F)c2cn(-c3cccc(C4(Cc5nncn5C)COC4)c3)c(=O)n2c1 [Compound 31]	301 to 1000
C[C@@H](c1cc(C(F)(F)F)c2cn(-c3cccc(C4(Cc5nncn5C)COC4)c3)c(=O)n2c1)N1CCC(F)CC1 [Compound 33]	< 100
C[C@H](c1cc(C(F)(F)F)c2cn(-c3cccc(C4(Cc5nncn5C)COC4)c3)c(=O)n2c1)N1CCC(F)CC1 [Compound 34]	< 100
Cn1cnnc1C(F)(F)[C@](C)(F)c1cccc(-n2cc3c(C(F)(F)F)cc(CN4CCC(F)(F)C4)cn3c2=O)c1 [Compound 35]	3000 to 10000
Cn1cnnc1C(F)(F)[C@@](C)(F)c1cccc(-n2cc3c(C(F)(F)F)cc(CN4CCC(F)(F)C4)cn3c2=O)c1 [Compound 36]	301 to 1000
C[C@H](c1cc(C(F)(F)F)c2cn(-c3cccc(C4(Cc5nncn5C)COC4)c3)c(=O)n2c1)N1CC2CC2C1 (some centres unmarked) [Compound 37]	< 100
CN(CCO)C(=O)c1cc(C(F)(F)F)c2cn(-c3cccc(C4(Cc5nncn5C)COC4)c3)c(=O)n2c1 [Compound 38]	301 to 1000
C[C@@H](c1cc(C(F)(F)F)c2cn(-c3cccc(C4(Cc5nncn5C)COC4)c3)c(=O)n2c1)N1CC[C@H](F)C1 [Compound 39]	< 100
C[C@H](c1cc(C(F)(F)F)c2cn(-c3cccc(C4(Cc5nncn5C)COC4)c3)c(=O)n2c1)N1CC[C@H](F)C1 [Compound 40]	< 100
C[C@@H](c1cc(C(F)(F)F)c2cn(-c3cccc(C4(Cc5nncn5C)COC4)c3)c(=O)n2c1)N1CCC(C)(F)CC1 [Compound 41]	< 100
C[C@H](c1cc(C(F)(F)F)c2cn(-c3cccc(C4(Cc5nncn5C)COC4)c3)c(=O)n2c1)N1CCC(C)(F)CC1 [Compound 42]	< 100
Cn1cnnc1[C@@H]1C[C@@H]1c1cccc(-n2cc3c(C(F)(F)F)cccn3c2=O)c1 [Compound 43]	3000 to 10000
Cn1cnnc1[C@@H](F)C1(c2cccc(-n3cc4c(C(F)(F)F)cc(CN5CCC(F)CC5)cn4c3=O)c2)COC1 [Compound 44]	< 100
C[C@H](Cc1nnc[nH]1)c1cccc(-n2cc3c(C(F)(F)F)cccn3c2=O)c1 [Compound 46]	1000 to 3000
C[C@@H](Cc1nnc[nH]1)c1cccc(-n2cc3c(C(F)(F)F)cccn3c2=O)c1 [Compound 47]	> 10000
C[C@H]1CCCN(Cc2cc(C(F)(F)F)c3cn(-c4cccc(C5(Cc6nncn6C(F)F)COC5)c4)c(=O)n3c2)C1 [Compound 48]	< 100
COC1CCN(Cc2cc(C(F)(F)F)c3cn(-c4cccc(C5(Cc6nncn6C)COC5)c4)c(=O)n3c2)CC1 [Compound 49]	< 100
COCCNCc1cc(C(F)(F)F)c2cn(-c3cccc(C4(Cc5nncn5C)COC4)c3)c(=O)n2c1 [Compound 50]	< 100
COCCN(C)Cc1cc(C(F)(F)F)c2cn(-c3cccc(C4(Cc5nncn5C)COC4)c3)c(=O)n2c1 [Compound 51]	301 to 1000
CC(Cc1nncn1C)c1ccc(F)c(-n2cc3c(C(F)(F)F)cccn3c2=O)c1 (centres unmarked) [Compound 52]	3000 to 10000
Cn1cnnc1CC1(c2cccc(-n3cc4c(C(F)(F)F)cc(CN5CCC(O)CC5)cn4c3=O)c2)COC1 [Compound 53]	< 100
C[C@@H](c1cc(C(F)(F)F)c2cn(-c3cccc(C4([C@H](F)c5nncn5C)COC4)c3)c(=O)n2c1)N1CCC2(CC2)C1 [Compound 54]	100 to 300
C[C@H](c1cc(C(F)(F)F)c2cn(-c3cccc(C4([C@@H](F)c5nncn5C)COC4)c3)c(=O)n2c1)N1CCC2(CC2)C1 [Compound 55]	< 100
C[C@@H](c1cc(C(F)(F)F)c2cn(-c3cccc(C4([C@@H](F)c5nncn5C)COC4)c3)c(=O)n2c1)N1CCC2(CC2)C1 [Compound 56]	< 100
C[C@H](c1cc(C(F)(F)F)c2cn(-c3cccc(C4([C@H](F)c5nncn5C)COC4)c3)c(=O)n2c1)N1CCC2(CC2)C1 [Compound 57]	< 100

Further lines, results first:

IC50 [nM]	SMILES
1000 to 3000	CN1CC=C(c2cc(C(F)(F)F)c3cn(-c4cccc(C5(Cc6nncn6C)COC5)c4)c(=O)n3c2)CC1 [Compound 58, 2-(3-[3-[(4-methyl-1,2,4-triazol-3-yl)methyl]oxetan-3-yl]phenyl)-6-(1-methyl-3,6-dihydro-2H-pyridin-4-yl)-8-(trifluoromethyl)imidazo[1,5-a]pyridin-3-one]
100 to 300	Cn1cnnc1CC1(c2cccc(-n3cc4c(C(F)(F)F)cc(CN5CC(O)C5)cn4c3=O)c2)COC1 [Compound 61]
100 to 300	CN1CCC=C(c2cc(C(F)(F)F)c3cn(-c4cccc(C5(Cc6nncn6C)COC5)c4)c(=O)n3c2)C1 [Compound 63]
1000 to 3000	Cn1cnnc1CC1(c2cccc(-n3cc4c(C(F)(F)F)cc(C5=CCNC5)cn4c3=O)c2)COC1 [Compound 64]
301 to 1000	Cn1cnnc1CC1(c2cccc(-n3cc4c(C(F)(F)F)cc(C5CCN(C(=O)OC(C)(C)C)C5)cn4c3=O)c2)COC1 (centres unmarked) [Compound 65]
< 100	Cn1cnnc1CC1(c2cccc(-n3cc4c(Cl)cc(CN5CC[C@H](F)C5)cn4c3=O)c2)COC1 [Compound 66]
< 100	C=C(C)C[C@H](c1cccc(-n2cc3c(C(F)(F)F)cc(CN4CCC[C@H](C)C4)cn3c2=O)c1)c1nncn1C [Compound 69]
301 to 1000	Cc1cccn2c(=O)n(-c3cccc(C4(Cc5nncn5C)COC4)c3)cc12 [Compound 70]
100 to 300	Cn1cnnc1CC1(c2cccc(-n3cc4ccccn4c3=O)c2)COC1 [Compound 71]
301 to 1000	C[C@@H]1CN(Cc2cc(C(F)(F)F)c3cn(-c4cccc(C5(Cc6nncn6C)COC5)c4)c(=O)n3c2)CCC1(F)F [Compound 72]
3000 to 10000	C[C@H]1CN(Cc2cc(C(F)(F)F)c3cn(-c4cccc(C5(Cc6nncn6C)COC5)c4)c(=O)n3c2)CCC1(F)F [Compound 73]
100 to 300	C[C@H]1CCCN(Cc2cc(C(F)(F)F)c3cn(-c4cccc(C5(c6nncn6C)CC6(CC6)C5)c4)c(=O)n3c2)C1 [Compound 74]
100 to 300	Cn1cnnc1CC1(c2cccc(-n3cc4c(C(F)(F)F)cc(CNCCO)cn4c3=O)c2)COC1 [Compound 75]
100 to 300	CN(CCO)Cc1cc(C(F)(F)F)c2cn(-c3cccc(C4(Cc5nncn5C)COC4)c3)c(=O)n2c1 [Compound 76]
< 100	COCCOCc1cc(C(F)(F)F)c2cn(-c3cccc(C4(Cc5nncn5C)COC4)c3)c(=O)n2c1 [Compound 77]
< 100	CN1CC=C(c2cc(C(F)(F)F)c3cn(-c4cccc(C5(Cc6nncn6C)COC5)c4)c(=O)n3c2)C1 [Compound 78]
< 100	CN(C)C1CC=C(c2cc(C(F)(F)F)c3cn(-c4cccc(C5(Cc6nncn6C)COC5)c4)c(=O)n3c2)CC1 (centres unmarked) [Compound 79]
